Entries after “also recorded” stand apart in the source; their conditions may differ. Where a SMILES comes first, the peptide text is derived from it. The star is where a group is joined. Cbz = O=C(OCc1ccccc1)*; CH2F = FC*
Legend:
[1] = test system: p53 protein in HUVEC cells; experiment: p53 protein western blot, HUVEC; assay type: cell-based, human; details: normal HUVEC cells; 2 and 24 hours; hydrochloride trihydrate
Description: (§1) For Western blotting, cells were lysed in 20 mM Tris-HCl, pH 7.4 containing 10% glycerol, 1% Triton-x100, 150 mM NaCl and protease inhibitors (1 mM PMSF, 10 μg/ml Aprotinin, 10 μg/ml Leupeptin, Sigma). Aliquots of 50 μg of total protein per well were separated in a NuPAGE 4-12% Bis-Tris gel with NuPAGE MES SDS running buffer (Novex; San Diego, Calif.). The gels were transferred to […] pure nitrocellulose membrane (Bio-Rad) by semi-dry transfer cell (Bio-dad; Hercules, Calif.) with NuPAGE transfer buffer. The membranes were blocked with PBS containing 5% nonfat dry milk and incubated with primary antibodies against the proteins of interest followed by a horseradish […] secondary antibody (Amersham; Braunschweig, Germany). Immunoreactivo bands were visualized by the enhanced chemiluminescencesystem (Amersham; Braunschweig, Germany). The antibodies used in this study were: Anti-caspase-3 (Stratagene, #200021; La Jolla, Calif.), anti-p53 and anti-p21 (Oncogene, #0P43 and #0P64; Cambridge, Mass.), and anti-FLIP (#343002, Calbiochem, San Diego, Calif.). The antibodies were used at the concentrations recommended by the manufacturers.

[2] = test system: p21 protein in HCT116 cells; experiment: p21 protein western blot, HCT116; assay type: cell-based, human
Description: as §1

DR5 mRNA in HCT116 cells = experiment: bDNA assay of DR5 mRNA; assay type: cell-based, human
Description: The specificity of the probes was tested using RNA from in vitro transcription using recombinant DcR1, DcR2, DR4 and DR5 constructs.

DR4 mRNA in HCT116 cells = experiment: bDNA assay of DR4 mRNA; assay type: cell-based, human
From the text: Total RNA was isolated using the RNA stat-60™ solution (Tel-Test, Inc (Friendsweed, Tex.) according to manufacturer's instruction. The Quantigene bDNA™ signal amplification kit (Chiron diagnostics; East Walpole, Mass.) was used to evaluate mRNA levels. The sequence of GAPDH probe sets was as recommended by the manufacturer. The DR4 probe sets were lined within the region of nucleic acid residues 9 to 582. There were 5 capture probes, 16 labeling probes and 8 blocking probes. The DR5 probe sets were lined within the region of nucleic acid residues 13-591. There were 5 capture probes, 17 labeling probes and 5 blocking probes for DR5. The specificity of the probes was tested using RNA from in vitro transcription using recombinant DcR1, DcR2, DR4 and DR5 constructs. Both DR4 and DR5 probe sets were highly specific for their own RNA transcripts. The signal from each probe sets was linear with the concentrations tested. bDNA assays were performed according to manufacturer's instructions using about 2 μg of total RNA/well.

[3] = test system: HCT116 colon cancer cells; experiment: AlamarBlue cell viability assay; assay type: cell-based, human; details: 24 hours; CPT-11 50 μg/ml, Apo2L/TRAIL 1 μg/ml
Description: (§2) An AlamarBlue™ assay was used to determine the cell viability. HCT116 colon cancer cells (˜10000 cells/well) were incubated overnight in 10% FBS RPMI 1640 medium in 96-well tissue culture plates. […] AlamarBlue™ was added to the wells for the last 6 hours of the 24 hours incubation time. Fluorescence was read using 96-well fluorometer plate reader with an excitation of 530 nm and emission of 590 nm (CytoFluor multi-well plate reader series 4000, PerSeptive Biosystems; Framingham, Mass.). In addition, the Molecular probes Live/Dead^R viability/cytotoxicity kit (Eugene, Oreg.) was used to evaluate the presence of live or dead cells. In these assays, Calcein-Am (4 μM) and ethidium homodimer-1 (2 μM) were added to treated cells 15 minutes before inspecting the cultures under an Axiovert 25 (Zeiss; Thornwood, N.Y.) fluorescence microscope equipped with fluorescein (calcein) and rhodamine (ethidium homodimer-1) filters.

[4] = test system: p53 protein in HCT116 cells; experiment: p53 protein western blot, HCT116; assay type: cell-based, human; details: HCT116 tumor cells; 2 and 24 hours; hydrochloride trihydrate
Description: as §1

HCT116 cells [5] = experiment: Flow cytometric cell cycle analysis, HCT116; assay type: cell-based, human
Description: Cell cycle analysis was performed via FACS analysis. HCT116 and HUVEC cells were incubated and treated as described in the figure legends. After the treatments, both floating cells in the medium aid live cells in the plate were collected. Cycle TEST PLUS DNA™ reagent kit (Beckon Dickinson; San Jose, Calif.) was used to stain cells according to manufacturer's instruction. The stained cells were analyzed in a FACS sorter (Becton Dickinson). The percentage of apoptotic cells containing a sub-G1 DNA content was quantitated using the CellQuest program. The percentage of live cells in each phase of cell cycle was quantitated using the ModFit LT program.

[6] = test system: COLO205 colon carcinoma cells; experiment: COLO205 colon carcinoma tumor growth in athymic nude mice (Example 1)
Description: The colon carcinoma cell line COLO205 (available from NCI) were grown and maintained according to the supplier's methods. Briefly, COLO205 cells were cultured in high glucose DMEM/F12 (50:50) media containing 10% fetal bovine serum and 2.0 mM L-Glutamine. […] CPT-11 (Camptosar®) was obtained from Pharmacia & Upjohn.

[7] = test system: p21 protein in HUVEC cells; experiment: p21 protein western blot, HUVEC; assay type: cell-based, human; details: normal HUVEC cells; 24 hours
Description: as §1

HCT116 cells [8] = experiment: Live/Dead viability/cytotoxicity fluorescence microscopy (calcein-AM, ethidium homodimer-1); assay type: cell-based, human
Description: as §2

[9] = test system: HCT116 colon cancer cells; experiment: Crystal violet cell survival assay; assay type: cell-based, human; details: SN-38 0.05 microgram/ml; FIG. 15
Description: A crystal violet assay was also used. […] The medium was removed the following day, and the cells were incubated for 24 or 48 hours in the fresh medium containing the various agents noted above. At the end of each treatment, the medium was removed and 100 μl of 0.5% crystal violet solution was added to each well and incubated at room temperature for 10 minutes before washing with water. After the wells were dry, 100 μl of ethanol containing 0.5 N HCL was added to each well. The plates were then read at 540 nm using a 96-well plate reader (Spectra Max 340pc, Molecular Devices Corporation, Sunnyvale, Calif.).

[10] = 24 hours of treatment, without Z-VAD

## CCc1c2c(nc3ccc(OC(=O)N4CCC(N5CCCCC5)CC4)cc13)-c1cc3c(c(=O)n1C2)COC(=O)[C@]3(O)CC.Cl.O.O.O [CPT-11, (4S)-4,11-diethyl-4-hydroxy-9-[(4-piperidino-piperidino)carbonyloxyl]-1H-pyrano[3′,4′:6,7]indolizino [1,2-b]quinoline-3,14(4H,12H)dione hydrochloride trihydrate]
[1]
  p53 protein level: strong and sustained induction of p53 expression; also recorded: increase in p53 protein levels
[2]; CPT-11 incubation
  time profile of changes in p21 protein levels: increases as early as 4 hours of treatment
[2]; HCT116 tumor cells, 24 hours
  p21 protein level: large induction of p21 protein
DR5 mRNA in HCT116 cells; 2 hours of treatment
  increase in DR5 mRNA expression compared with controls: not at 2 hours
DR5 mRNA in HCT116 cells; [10]
  increase in DR5 mRNA compared with controls: 2.5 fold
DR5 mRNA in HCT116 cells; time of exposure, hydrochloride trihydrate
  induction of DR5 expression by CPT-11 in vitro: can be observed after two hours exposure or incubation; also recorded: induced in vitro following exposure of cells to 50 microgram/ml CPT-11 for 6 hours
DR4 mRNA in HCT116 cells; 2 hours of treatment
  increase in DR4 mRNA compared with controls: not at 2 hours
DR4 mRNA in HCT116 cells; [10]
  increase in DR4 mRNA compared with controls: 2.5 fold
[3]
  effect on Apo2L/TRAIL-mediated apoptosis (number of live cells): enhanced Apo2L/TRAIL-mediated apoptosis in vitro
[4]
  p53 protein level: strong and sustained induction of p53 expression; also recorded: increase in p53 protein levels
HCT116 cells [5]; 6 hours, control 30%
  cells in Go-G1 (cell cycle arrest): 76%
HCT116 cells [5]; 24 hours
  Go-G1 phase: clear reduction in Go-G1 phase
HCT116 cells [5]; 24 hours, control 19%
  cells in G2-M phase (arrest): 43%
HCT116 cells [5]; 24 hours, control cells 1%
  apoptosis (sub-G1 DNA content): 9%
[6]; 9 mice per group
  animals in which tumor growth resumed several days after the treatment period: 9 animals
[6]; s.c. COLO205 tumors, Apo-2L 30 mg/kg/day days 0-4 and 7-11, CPT-11 80 mg/kg/day days 0, 4, 8, 34 days
  effect on tumor growth: suppressed tumor growth during the treatment period
[7]
  p21 protein level: large induction of p21 protein
HCT116 cells [8]; 2 hours of treatment
  morphological changes / cell killing: did not show any morphological changes
HCT116 cells [8]; 24 hours of treatment
  cell death: a few dead cells were clearly present

## CC(NC(=O)C(NC(=O)OCc1ccccc1)C(C)C)C(=O)NC(CC(=O)O)C(=O)CF (stereo not drawn) [Z-VAD] (Cbz-Val-Ala-Asp-CH2F; configuration not given here)
DR5 mRNA in HCT116 cells; 24 hours, with Z-VAD
  increase in DR5 mRNA in the presence of Z-VAD: did not block
DR4 mRNA in HCT116 cells; 24 hours, with Z-VAD
  increase in DR4 mRNA in the presence of Z-VAD: did not block
HCT116 cells [5]; HCT116
  effect of caspase inhibitor on Apo2L/TRAIL-mediated apoptosis: effectively blocked Apo2L/TRAIL-mediated apoptosis

## CCc1c2c(nc3ccc(O)cc13)-c1cc3c(c(=O)n1C2)COC(=O)[C@]3(O)CC [SN38]
[9]
  tumor cell death with SN38 instead of CPT-11 in combination and sequential treatments with Apo2L/TRAIL: Increased tumor cell death

— US20110059104A1, “Apo-2L receptor agonist and CPT-11 synergism” (Genentech, Inc., priority 2000, published 2011)
